This note sets out measurements from ChEMBL document CHEMBL6127084, “Exploration of the tunability of BRD4 degradation by DCAF16 trans-labelling covalent glues” (Eur J Med Chem, 2024).

The source made the active and inactive calls. The rule behind the calls is not given here. A value given as a limit tells only on which side of the number the result lay.

A short description of series [1]: Glutathione reactivity in PBS buffer assessed as half lives incubated for 1 hrs by LC-MS/MS analysis. The class given is physicochemical.
For series [2], the target named is T1, DDB1- and CUL4-associated factor 16/Bromodomain-containing protein 4 (Homo sapiens, UniProt O60885+Q9NXF7). Put plainly: Molecular glue degradation (MGD) activity at DCAF16/BRD4 in human K562 cells incubated for 16 hrs. The class given is cell-based.
A further series concerns Jurkat. As to the kind of experiment: Molecular glue degradation (MGD) activity at BRD4 in DCAF16 knock out human Jurkat cells assessed as BRD4 degradation at 0.01 to 10 uM incubated for 6 hrs by Nano-Glo HiBiT assay. The class given is cell-based. The settings on record: dose 0.01-10 µM.
Series [3] can be described thus: Stability of compound in PBS assessed as half lives incubated for 1 hrs by LC-MS/MS analysis. The class given is physicochemical.
Series [4] has as its target T1, DDB1- and CUL4-associated factor 16/Bromodomain-containing protein 4. Put plainly: Molecular glue degradation (MGD) activity at DCAF16/BRD4 BD2 in human K562 cells assessed as maximum degradation at 10 uM incubated for 16 hrs by fluorescent stability reporter assay relative to control. The series is classed as cell-based. On the technique in general: Reporter assays use an easily measured gene product as a stand-in for the process of interest.

The next series deals with K562. Put plainly: Induction of eGF-tagged BRD4 BD2 degradation in DCAF16 knock out human K562 cells at 1 uM incubated for 16 hrs by Western blot analysis. The class given is cell-based.
Series [5] addresses T1, DDB1- and CUL4-associated factor 16/Bromodomain-containing protein 4. Put plainly: Potency index, ratio of GNE011 MIC to test compound MIC for molecular glue degradation (MGD) activity at DCAF16/BRD4 BD2 in human K562 cells assessed as maximum degradation at 10 uM incubated for 16 hrs by fluorescent stability reporter assay. The series is classed as cell-based.
Series [6] has the same target. Put plainly: Molecular glue degradation (MGD) activity at DCAF16/BRD4 in human K562 cells assessed as maximum degradation incubated for 16 hrs by fluorescent stability reporter assay relative to control. The series is classed as cell-based.
Series [7] has the same target. Put plainly: Molecular glue degradation (MGD) activity at DCAF16/BRD4 in wild type human Jurkat cells assessed as BRD4 degradation at < 100 nM incubated for 6 hrs by Nano-Glo HiBiT assay. The series is classed as cell-based. In general terms: With HiBiT, luminescence reflects the tagged protein that the partner subunit can reach.
Series [8] has the same target. As to the kind of experiment: Binding affinity to His-tagged BRD4 BD2 (unknown origin) assessed as ternary complex formation at 0.001 to 100 uM incubated for 1 to 24 hrs by TR-FRET assay. The series is classed as protein assay. The settings on record: dose 0.001-100 µM, time 1-24 hrs.
Series [9] shares this target. Put plainly: Molecular glue degradation (MGD) activity at DCAF16/BRD4 in human K562 cells assessed as covalent-engagement of DCAF16 by measuring BRD4 degradation at 1 uM preincubated for 4 hrs followed by compound addition measured after 24 hrs (no washout experiment) by Western blot analysis. The class given is cell-based. The settings on record: time 28.0 hrs.
Series [10] has the same target. Put plainly: Molecular glue degradation (MGD) activity at DCAF16/ BRD4 BD2 in human K562 cells transfected with […] incubated for 16 hrs by fluorescent stability reporter assay. The series is classed as cell-based. The settings on record: dose 0.001-10 µM.
Series [11] has the same target. As to the kind of experiment: Molecular glue degradation (MGD) activity at DCAF16/BRD4 in wild type human Jurkat cells assessed as BRD4 degradation at 10 nM incubated for 6 hrs by Nano-Glo HiBiT assay. The class given is cell-based.
The target is the same in series [12]. As to the kind of experiment: Binding affinity to DCAF16/eGF-tagged BRD4 BD2 (unknown origin) assessed as ternary complex formation by measuring maximum TR-FRET ratio at 100 uM incubated for 1 hrs by TR-FRET assay. The series is classed as protein assay. (TR-FRET usually uses a lanthanide donor and a delayed reading to cut background.)
Series [13] has the same target. As to the kind of experiment: Binding affinity to DCAF16/eGF-tagged BRD4 BD2 (unknown origin) assessed as ternary complex formation by measuring maximum TR-FRET ratio at 100 uM incubated for 24 hrs by TR-FRET assay. The class given is protein assay.

In general, half-life refers to how long it takes for the measured level to halve. The DC50 is the concentration at which degradation of the target reaches its halfway point. Low readings indicate a more potent degrader, high ones a less potent degrader. As usually defined, the Emax is the maximal effect, on the per cent scale that the assay sets.

T1 sequence (Q9NXF7 whole entry, looked up, other chains not shown): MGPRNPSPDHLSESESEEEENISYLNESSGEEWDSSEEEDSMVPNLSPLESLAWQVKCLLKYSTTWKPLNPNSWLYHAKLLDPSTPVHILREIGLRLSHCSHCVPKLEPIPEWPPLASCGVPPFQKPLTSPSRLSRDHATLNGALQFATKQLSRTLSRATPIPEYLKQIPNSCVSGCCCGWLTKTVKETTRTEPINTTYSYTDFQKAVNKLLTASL

For the compound `C=CS(=O)(=O)Nc1ccc(C2=N[C@@H](CC(=O)OC(C)(C)C)c3nncn3-c3sc(C)c(C)c32)cc1`, the half-life in series [1] and in series [3] was more than 12.5 h throughout. In addition, half-maximal degradation in [2] (DC50) was put at 1 nM. In addition, the result with Jurkat and in the series on K562 was inactive. Besides, the Emax in [4] was determined as 95%. Further, the fold change (FC) in [5] stood at 1000.
On to `Cc1sc2c(c1C)C(c1ccc(C#CC(N)=O)cc1)=N[C@@H](CC(=O)OC(C)(C)C)c1nncn1-2`, for which the half-life is 6.33 h in series [1] and more than 12.5 h in [3]. The DC50 in series [2] was determined as 51 nM. Further, the result in the series on Jurkat and with K562 was inactive. In addition, the Emax in [6] was determined as 69%.
Turning to `Cc1sc2c(c1C)C(c1ccc(NC(=O)CCl)cc1)=N[C@@H](CC(=O)OC(C)(C)C)c1nncn1-2`, the half-life in series [1] is 8.85 h; in [3], more than 12.5 h. In series [7], the Activity was more than 90%. The compound also came in with a DC50 in series [2] of 8 nM. The outcome with Jurkat was inactive. In addition, the Emax in [4] turned out to be 56%.
For the compound `Cc1sc2c(c1C)C(c1ccc(C#CCO)cc1)=N[C@@H](CC(=O)OC(C)(C)C)c1nncn1-2`, in series [2], the DC50 is more than 10000 nM. The result in series [8] was inactive. In series [6], the Emax came to 10%.
`Cc1sc2c(c1C)C(c1ccc(/C=C/C=O)cc1)=N[C@@H](CC(=O)OC(C)(C)C)c1nncn1-2`: the half-life in [1] was 6.92 h; in [3], more than 12.5 h. For the same compound, the Activity in series [7] was more than 90%. In addition, half-maximal degradation in series [2] (DC50) was put at 64 nM. Besides, the result with Jurkat and in the series on K562 was inactive. In addition, in [6], the Emax is 75%.
Turning to `Cc1sc2c(c1C)C(c1ccc(/C=C/C(N)=O)cc1)=N[C@@H](CC(=O)OC(C)(C)C)c1nncn1-2`, the half-life in series [1] and in series [3] was more than 12.5 h each time. The result in [8] and in [10] was inactive. The result in series [9] was Active.
Turning to `Cc1sc2c(c1C)C(c1ccc(C#CC=O)cc1)=N[C@@H](CC(=O)OC(C)(C)C)c1nncn1-2`, the half-life is 8.83 h in series [1] and more than 12.5 h in series [3]. Moreover, the Activity in series [7] was more than 90%; in [11] it was 73%. This compound also displayed a DC50 in [2] of 703 nM. For the same compound, the result with Jurkat and in the series with K562 was inactive. Further, the Ratio in series [12] stood at 2.12; in series [13], 0.28. For the same compound, the Emax in series [6] was determined as 69%.
